According to PMC11513923, “Discovery of ZLC491 as a Potent, Selective, and Orally Bioavailable CDK12/13 PROTAC Degrader” (Journal of Medicinal Chemistry, 2024):
Where a SMILES comes first, the peptide text is derived from it. The star is where a group is joined. Cbz = O=C(OCc1ccccc1)*

Legend:
CDK13 = target: T1, CDK13 (Homo sapiens, UniProt Q14004); test: CDK13 degradation in MDA-MB-231 cells by immunoblotting; format: cell-based; settings: 0.3 μM; for Protein Degradation (%DMSO control, 0.3 μM) CDK13: MDA-MB-231 cells, 15 h, immunoblotting, normalized against α-tubulin; for Degradation rates of CDK13 at 0.3 μM: supplementary CSV;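 on Protein Degradation (%DMSO control, 0.3 μM) CDK13: percent of CDK13 protein degraded relative to DMSO control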
T1 construct: Immunoblotting of CDK12 and CDK13 in MDA-MB-231 cells treated with increasing concentrations of ZLC491 for 15 h; endogenous in cells; host or cells: MDA-MB-231
Method: (§1) The degradation efficiency of the new molecules was assessed by immunoblotting after treatment with the compounds at 0.3 μM in MD-MBA-231 cells for 15 h.
(§2) To further characterize the compound, we determined the half-degradation concentration (DC50) values of ZLC491 in MDA-MB-231 cells. […] We also treated MDA-MB-231 cells with 1 μM ZLC491 at various time points.
(§3) (A) Immunoblotting of CDK12 and CDK13 in MDA-MB-231 cells treated with increasing concentrations of ZLC491 for 15 h (left). Percent remaining CDK12 and CDK13 proteins were plotted for DC50 determination (right). Protein levels were quantified using ImageJ and normalized to corresponding α-tubulin, then plotted using Graphpad Prism 8.0. The data were representative of three independent experiments; (B) immunoblotting of CDK12 and CDK13 proteins in MDA-MB-231 cells treated with ZLC491 for various time points; immunoblotting of CDK12 and CDK13 in HCC38 (C) and MDA-MB-436 (D) cells treated with increasing concentrations of ZLC491 for 15 h. α-Tubulin was used as a loading control. TEXT PRINTED IN THE PICTURE: (A) ZLC491: MDA-MB-231: CDK12 DC50 = 0.032μM; MDA-MB-231: CDK13 DC50 = 0.028μM DOUBTS OF THE COPYIST ABOUT THIS PICTURE: ZLC491, CDK12 DC50: 0.032 read from small print, the digits 3 and 2 are uncertain / ZLC491, CDK13 DC50: 0.028 read from small print, the last digit may be 8, 6 or 3
(§4) Generally, the tested cells were washed by ice-cold PBS buffer (Gibco) and lysed with an SDS lysis buffer (62.5 mM Tris, 2% w/v SDS, 10 glycerol, 50 mM DTT, 0.01% w/v bromophenol blue) on ice, after which the protein lysate samples were collected to 1.5 mL microcentrifuge tubes and treated with ultrasonic for 10 s, following with a 100 °C incubation for 10 min and a 4 °C centrifugation of 12000 rpm for 10 min. An equal amount of protein was loaded to 4–8% Bis-Tris gels and underwent an SDS-PAGE electrophoresis at 55V for 30 min and 95V for 90 min. Proteins on gels were then transferred to a polyvinylidene difluoride (PVDF) membrane (Bio-Rad) with a wet electro transfer system (Bio-Rad). The PVDF membrane was cut into bands and incubated in a blocking reagent (5% defatted milk powder dissolved in TBST) at room temperature for 1–2 h. Incubate membrane and primary antibody (at the appropriate dilution and diluent as recommended in the product webpage) at 4 °C for 12–14 h, followed with three times washes by TBST. The washed membranes were incubated in a secondary antibody solution (HRP-linked antirabbit IgG or antimouse IgG (CST), 1:2000 diluted into TBST) at room temperature for 2 h. Membranes were photographed in Amersham Imager 800 system using StarSignal plus regent (GenStar) or Omni-ECL reagent (EpiZyme). Compounds MG132, MLN4924, Bafilomycin A1 and pomalidomide were purchased from MedChemExpress (MCE) LLC.

CDK12 = CDK12 (Homo sapiens, UniProt Q9NYV4); test: CDK12 degradation in MDA-MB-231 cells by immunoblotting; format: cell-based; set-up: Immunoblotting of CDK12 and CDK13 in MDA-MB-231 cells treated with increasing concentrations of ZLC491 for 15 h; endogenous in cells; host or cells: MDA-MB-231; settings: 0.3 μM; for Protein Degradation (%DMSO control, 0.3 μM) CDK12: MDA-MB-231 cells, 15 h, immunoblotting, normalized against α-tubulin; for Degradation rates of CDK12 at 0.3 μM: supplementary CSV
Method: as §1, §2, §3, §4

Pharmacokinetics in rats = format: in vivo, rat
Method: We further evaluated the in vivo PK properties of compound ZLC491 and the counterpart 4m (without F substitution) in rats, and the results were summarized in Table 2. […] The PK profiles of F-containing compound ZLC491 were further improved.
The pharmacokinetic investigation was taken by Shanghai Medicilon Inc. (Project Code: 26048-23001-NG). Sprague–Dawley male rats (Specific pathogen Free (SPF), provided by Zhejiang Vital River Laboratory Animal Technology Co. Ltd.) were dosed with ZLC491 solution formulation (5% DMSO, 10% Solutol, 85% normal saline, 2.5 mg/kg for intravenous dose, 10 mg/kg for oral dose) or compound 4m solution formulation (5% DMSO, 10% Solutol, 85% (20%HP-β-CD), 2.5 mg/kg for intravenous dose, 10 mg/kg for oral dose). Blood samples were collected at 0.083, 0.25, 0.5, 1, 2, 4, 8, and 24 h in intravenous administration, 0.25, 0.5, 1, 2, 4, 6, 8, and 24 h in oral administration. The blood samples were collected from sets of three rats at each time point in labeled microcentrifuge tubes containing heparin sodium as an anticoagulant. Plasma samples were separated by centrifugation (2–8 °C, 6800g for 6 min) within 1 h and stored below −80 °C until bioanalysis. All samples were processed for analysis by precipitation using acetonitrile and analyzed with a partially validated LC/MS/MS method. Pharmacokinetic parameters were calculated using the noncompartmental analysis tool of WinNonlin Enterprise software.

CDK12/13 = test: Mechanism study: pretreatment before ZLC491, immunoblotting of CDK12/13 in MDA-MB-231 cells; format: cell-based, human; settings: 2 h pretreatment (1 μM MG132, 0.1 μM MLN4924, 0.1 μM bafilomycin, 5 μM pomalidomide, 8 μM compound 5), then 1 μM ZLC491 10 h
Method: We further investigated the mechanism of action of ZLC491-mediated CDK12/13 degradation. […] Additionally, pretreatment with CRBN ligand pomalidomide or the warhead compound 5 also reversed the ZLC491-mediated CDK12/13 degradation in MDA-MB-231 cells (Figure 4D,E).
Figure 4 ZLC491 induced CDK12/13 degradation in a CRBN- and proteasome-dependent fashion. Immunoblotting of CDK12 and CDK13 in MDA-MB-231 cells treated with 1 μM ZLC491 for 10 h with or without pretreatment with 1 μM MG132 (A), 0.1 μM MLN4924 (B), 0.1 μM bafilomycin (C), 5 μM pomalidomide (D) and 8 μM compound 5 (E) for 2 h; (F) immunoblotting of CDK12 and CDK13 in MDA-MB-231 cells treated with 1 μM ZLC491N for 10 h. α-Tubulin was used as a loading control.
as §4

[1] = male, Sprague-Dawley, rat, plasma, oral bioavailability, p.o. 10 mg/kg vs i.v. 2.5 mg/kg

Chain of CDK12 (Q9NYV4 whole entry): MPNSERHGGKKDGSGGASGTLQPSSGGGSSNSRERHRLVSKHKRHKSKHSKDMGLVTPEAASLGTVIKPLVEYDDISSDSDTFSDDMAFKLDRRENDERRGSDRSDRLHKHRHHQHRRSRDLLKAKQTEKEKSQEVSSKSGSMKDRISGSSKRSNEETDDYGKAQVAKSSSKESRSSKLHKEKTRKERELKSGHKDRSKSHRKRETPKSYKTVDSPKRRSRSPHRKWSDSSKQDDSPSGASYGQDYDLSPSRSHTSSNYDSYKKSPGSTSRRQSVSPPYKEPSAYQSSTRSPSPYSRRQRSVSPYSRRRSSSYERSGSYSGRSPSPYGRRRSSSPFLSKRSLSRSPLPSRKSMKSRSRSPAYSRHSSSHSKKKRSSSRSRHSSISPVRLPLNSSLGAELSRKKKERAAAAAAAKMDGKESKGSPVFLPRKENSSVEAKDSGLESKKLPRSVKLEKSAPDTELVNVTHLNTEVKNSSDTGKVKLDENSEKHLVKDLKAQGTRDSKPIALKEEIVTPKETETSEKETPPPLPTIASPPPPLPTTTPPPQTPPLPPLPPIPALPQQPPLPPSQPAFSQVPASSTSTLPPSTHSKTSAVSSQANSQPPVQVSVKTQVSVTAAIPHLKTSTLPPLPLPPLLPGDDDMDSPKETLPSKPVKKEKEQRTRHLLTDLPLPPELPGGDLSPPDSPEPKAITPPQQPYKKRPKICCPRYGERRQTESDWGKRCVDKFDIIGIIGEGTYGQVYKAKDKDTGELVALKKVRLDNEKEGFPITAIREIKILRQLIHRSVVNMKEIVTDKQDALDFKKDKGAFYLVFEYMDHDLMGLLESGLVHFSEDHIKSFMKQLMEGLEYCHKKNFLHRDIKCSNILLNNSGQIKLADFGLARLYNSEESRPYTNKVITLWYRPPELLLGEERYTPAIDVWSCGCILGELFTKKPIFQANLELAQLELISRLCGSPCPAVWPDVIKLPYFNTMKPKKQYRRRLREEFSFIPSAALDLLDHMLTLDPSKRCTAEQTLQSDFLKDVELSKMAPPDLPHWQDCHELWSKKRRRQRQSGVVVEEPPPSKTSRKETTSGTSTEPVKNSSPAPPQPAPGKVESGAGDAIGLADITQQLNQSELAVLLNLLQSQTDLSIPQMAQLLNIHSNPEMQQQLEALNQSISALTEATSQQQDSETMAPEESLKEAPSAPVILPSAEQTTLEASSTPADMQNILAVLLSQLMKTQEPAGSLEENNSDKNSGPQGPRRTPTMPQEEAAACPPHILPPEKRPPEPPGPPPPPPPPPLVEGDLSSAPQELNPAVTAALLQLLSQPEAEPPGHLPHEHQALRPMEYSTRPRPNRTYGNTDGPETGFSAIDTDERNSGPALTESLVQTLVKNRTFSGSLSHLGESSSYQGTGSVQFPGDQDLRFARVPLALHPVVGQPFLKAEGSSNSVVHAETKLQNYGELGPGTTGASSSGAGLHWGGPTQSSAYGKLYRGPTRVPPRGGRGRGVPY
Chain of CDK12 (O75909 whole entry partner): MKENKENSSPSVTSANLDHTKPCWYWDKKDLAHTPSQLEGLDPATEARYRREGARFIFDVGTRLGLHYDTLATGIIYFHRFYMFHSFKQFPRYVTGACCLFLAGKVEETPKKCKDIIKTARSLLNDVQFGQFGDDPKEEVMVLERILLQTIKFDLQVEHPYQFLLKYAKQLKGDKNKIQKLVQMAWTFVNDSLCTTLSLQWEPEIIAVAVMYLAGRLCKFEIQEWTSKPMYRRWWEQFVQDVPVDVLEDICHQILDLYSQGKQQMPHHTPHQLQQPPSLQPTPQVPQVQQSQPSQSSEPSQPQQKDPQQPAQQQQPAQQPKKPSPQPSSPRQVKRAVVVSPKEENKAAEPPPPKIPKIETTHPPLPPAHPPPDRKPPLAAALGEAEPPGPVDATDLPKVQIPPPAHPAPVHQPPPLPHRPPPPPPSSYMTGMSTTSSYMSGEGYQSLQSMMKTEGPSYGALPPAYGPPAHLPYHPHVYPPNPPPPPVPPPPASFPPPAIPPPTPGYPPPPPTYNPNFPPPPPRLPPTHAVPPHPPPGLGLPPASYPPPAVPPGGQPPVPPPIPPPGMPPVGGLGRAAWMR
T1 sequence (Q14004 whole entry): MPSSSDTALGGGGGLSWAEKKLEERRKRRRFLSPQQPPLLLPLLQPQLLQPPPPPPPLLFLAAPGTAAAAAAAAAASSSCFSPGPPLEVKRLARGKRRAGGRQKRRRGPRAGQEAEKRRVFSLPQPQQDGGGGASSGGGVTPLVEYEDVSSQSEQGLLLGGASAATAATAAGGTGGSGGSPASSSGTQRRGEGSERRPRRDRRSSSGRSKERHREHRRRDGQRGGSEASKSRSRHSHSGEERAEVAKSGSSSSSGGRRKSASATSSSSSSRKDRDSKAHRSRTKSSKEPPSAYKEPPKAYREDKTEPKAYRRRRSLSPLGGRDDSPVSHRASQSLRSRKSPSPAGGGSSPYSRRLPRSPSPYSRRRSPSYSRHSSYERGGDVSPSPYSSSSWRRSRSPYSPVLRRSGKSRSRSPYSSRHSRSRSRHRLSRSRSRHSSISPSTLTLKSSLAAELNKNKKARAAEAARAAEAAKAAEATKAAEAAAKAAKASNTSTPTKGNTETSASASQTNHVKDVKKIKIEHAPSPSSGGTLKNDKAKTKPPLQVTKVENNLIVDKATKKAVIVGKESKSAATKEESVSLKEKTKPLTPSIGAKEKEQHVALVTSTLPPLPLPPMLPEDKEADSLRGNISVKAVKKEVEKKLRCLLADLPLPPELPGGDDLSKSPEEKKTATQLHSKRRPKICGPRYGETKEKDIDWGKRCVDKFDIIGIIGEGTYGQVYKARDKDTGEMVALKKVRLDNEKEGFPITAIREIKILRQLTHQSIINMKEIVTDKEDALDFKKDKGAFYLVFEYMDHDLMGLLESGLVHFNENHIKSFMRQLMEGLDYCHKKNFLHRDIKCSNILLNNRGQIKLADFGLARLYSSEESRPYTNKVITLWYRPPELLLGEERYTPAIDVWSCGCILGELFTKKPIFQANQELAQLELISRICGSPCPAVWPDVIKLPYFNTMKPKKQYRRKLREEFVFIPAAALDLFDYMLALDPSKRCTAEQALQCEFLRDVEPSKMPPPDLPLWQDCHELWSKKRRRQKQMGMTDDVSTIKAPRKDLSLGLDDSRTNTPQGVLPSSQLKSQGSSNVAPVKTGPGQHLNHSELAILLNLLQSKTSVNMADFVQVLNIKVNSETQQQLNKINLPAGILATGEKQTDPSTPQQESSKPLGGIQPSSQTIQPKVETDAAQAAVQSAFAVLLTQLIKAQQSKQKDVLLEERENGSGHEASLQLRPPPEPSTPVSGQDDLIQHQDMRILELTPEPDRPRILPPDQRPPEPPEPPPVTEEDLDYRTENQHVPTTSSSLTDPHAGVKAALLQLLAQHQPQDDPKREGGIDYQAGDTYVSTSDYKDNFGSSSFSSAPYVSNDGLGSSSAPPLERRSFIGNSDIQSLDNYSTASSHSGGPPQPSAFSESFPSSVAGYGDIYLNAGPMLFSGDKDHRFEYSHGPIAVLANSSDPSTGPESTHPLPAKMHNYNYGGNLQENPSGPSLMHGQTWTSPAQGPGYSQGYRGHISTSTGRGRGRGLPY
T1 sequence (O75909 whole entry partner): as the sequence (O75909 whole entry partner) above

SMILES	Protein Degradation (%DMSO control, 0.3 μM) CDK13 (CDK13) [%]	Degradation rates of CDK13 at 0.3 μM (CDK13) [%]	Protein Degradation (%DMSO control, 0.3 μM) CDK12 (CDK12) [%]	Degradation rates of CDK12 at 0.3 μM (CDK12) [%]	CL (Pharmacokinetics in rats; i.v. 2.5 mg/kg) [mL/min/kg]	bioavailability (Pharmacokinetics in rats; [1]) [%]	bioavailability at 24 h (Pharmacokinetics in rats; [1]) [%]	effect of pretreatment on ZLC491-induced CDK12/13 degradation (CDK12/13)
N#Cc1ccc(N[C@H]2CC[C@H](N(C(=O)NCc3ccccc3)c3ccc(N4CCN(C5CCN(c6ccc7c(c6)C(=O)N(C6CCC(=O)NC6=O)C7=O)C5)CC4)cc3)CC2)nc1 (stereo partly drawn) [4l, 3-Benzyl-1-((1r,4r)-4-((5-cyanopyridin-2-yl)amino)cyclohexyl)-1-(4-(4-(1-(2-(2,6-dioxopiperidin-3-yl)-1,3-dioxoisoindolin-5-yl)pyrrolidin-3-yl)piperazin-1-yl)phenyl)urea]	40	40	17	17	–	–	–	–
N#Cc1ccc(N[C@H]2CC[C@H](N(C(=O)NCc3ccccc3)c3ccc(N4CCN(C5CCN(c6ccc7c(c6)C(=O)N(C6CCC(=O)NC6=O)C7=O)CC5)CC4)cc3)CC2)nc1 (stereo partly drawn) [4m, 3-Benzyl-1-((1r,4r)-4-((5-cyanopyridin-2-yl)amino)cyclohexyl)-1-(4-(4-(1-(2-(2,6-dioxopiperidin-3-yl)-1,3-dioxoisoindolin-5-yl)piperidin-4-yl)piperazin-1-yl)phenyl)urea]	85	85	70	70	9.85	16	16.5	–
N#Cc1ccc(N[C@H]2CC[C@H](N(C(=O)NCc3ccccc3)c3ccc(N4CCC5(CC4)CN(c4ccc6c(c4)C(=O)N(C4CCC(=O)NC4=O)C6=O)C5)cc3)CC2)nc1 (stereo partly drawn) [4n, 3-Benzyl-1-((1r,4r)-4-((5-cyanopyridin-2-yl)amino)cyclohexyl)-1-(4-(2-(2-(2,6-dioxopiperidin-3-yl)-1,3-dioxoisoindolin-5-yl)-2,7-diazaspiro[3.5]nonan-7-yl)phenyl)urea]	85	85	63	63	–	–	–	–
N#Cc1ccc(N[C@H]2CC[C@H](N(C(=O)NCc3ccccc3)c3ccc(N4CCC5(CC4)CCN(c4ccc6c(c4)C(=O)N(C4CCC(=O)NC4=O)C6=O)C5)cc3)CC2)nc1 (stereo partly drawn) [4o, 3-Benzyl-1-((1r,4r)-4-((5-cyanopyridin-2-yl)amino)cyclohexyl)-1-(4-(2-(2-(2,6-dioxopiperidin-3-yl)-1,3-dioxoisoindolin-5-yl)-2,8-diazaspiro[4.5]decan-8-yl)phenyl)urea]	47	47	27	27	–	–	–	–
N#Cc1ccc(N[C@H]2CC[C@H](N(C(=O)NCc3ccccc3)c3ccc(N4CCC5(CC4)CCN(c4ccc6c(c4)C(=O)N(C4CCC(=O)NC4=O)C6=O)CC5)cc3)CC2)nc1 (stereo partly drawn) [4p, 3-Benzyl-1-((1r,4r)-4-((5-cyanopyridin-2-yl)amino)cyclohexyl)-1-(4-(9-(2-(2,6-dioxopiperidin-3-yl)-1,3-dioxoisoindolin-5-yl)-3,9-diazaspiro[5.5]undecan-3-yl)phenyl)urea]	66	66	42	42	–	–	–	–
CC(C)C[C@@H](C=O)NC(=O)[C@H](CC(C)C)NC(=O)[C@H](CC(C)C)NC(=O)OCc1ccccc1 [MG132] (Cbz-Leu-Leu-Leu-aldehyde)	–	–	–	–	–	–	–	significantly blocked
NS(=O)(=O)OC[C@@H]1C[C@@H](n2ccc3c(N[C@H]4CCc5ccccc54)ncnc32)C[C@@H]1O [MLN4924]	–	–	–	–	–	–	–	significantly blocked
N#Cc1ccc(N[C@H]2CC[C@H](N(C(=O)NCc3ccccc3)c3ccc(N4CCNCC4)cc3)CC2)nc1 [compound 5, 3-Benzyl-1-((1r,4r)-4-((5-cyanopyridin-2-yl)amino)cyclohexyl)-1-(4-(piperazin-1-yl)phenyl)urea]	–	–	–	–	–	–	–	reversed
Nc1cccc2c1C(=O)N(C1CCC(=O)NC1=O)C2=O (stereo not drawn) [pomalidomide]	–	–	–	–	–	–	–	reversed
